Measured values taken from publication PMC5104426, “Screening a Phage Display Library for Two Novel OmpU-Binding Peptides with Adhesion Antagonistic Activity against Vibrio mimicus” (PLoS ONE, 2016).
Values joined by “and” are separate entries in the source; they are usually repeats but may differ in a detail not shown here. Equal values may be shown once.

Experiments:
V. mimicus 04–14 isolate = experiment: Protective effects on grass carps challenged with V. mimicus; format: in vivo, Vibrio mimicus; conditions: for Mortality rate / Survival rate: n = 10, 7 days; for No. of dead fish post challenge, 2d: n = 10, day 2; for No. of dead fish post challenge, 3d: n = 10, day 3; for No. of dead fish post challenge, 4d: n = 10, day 4; for No. of dead fish post challenge, 5d: n = 10, day 5; for No. of dead fish post challenge, 6d: n = 10, day 6; for No. of dead fish post challenge, 7d: n = 10, day 7; for No. of dead fish: n = 10, total over 7 days; for No. of dead fish post challenge, 1d: n = 10, day 1
Experimental: (§1) Healthy grass carps weighting 50–52 g were purchased from a commercial fish farm in Anhui province of China, and then were maintained in a flow-through water system at a temperature of 25 ± 1°C and fed commercial pellets on a daily basis. After 14 days when grass carps were confirmed to be healthy, the water temperature was increased to 28 ± 1°C slowly, and the experiment began.
The experimental grass carps were randomly divided into 9 groups (named A-I group, n = 10 in each group). Groups A-C were injected intraperitoneally with P1 at a dose of 10 mg/kg/d, 20 mg/kg/d and 30 mg/kg/d, respectively; Groups D-F were given the same dosages of P2, respectively; Group G was given with 30 mg/kg/d of unrelated control peptide. After 3 days of continuous peptides injection, each fish in groups A-G was challenged intraperitoneally with 200 μL PBS containing 6 × 10^6 cells of V.mimicus 04–14 isolate (equal to the minimal lethal dose determined by preliminary test), respectively. Group H (infection control group) was only inoculated with 04–14 isolate at the minimal lethal dose; Group I (negative control group) was only inoculated with 0.65% sterile saline. Survival of the fish was monitored every 12 h for 7 days post-challenge. At the end of the 7 day observation period, all surviving fish were euthanized in a solution of 200 mg/L of MS-222 followed by a blow to the head.
The survival experiment was performed in accordance with the practices reported in recent studies on antibacterial efficacy of peptides in vivo, protective efficacy of vaccine and bacterial virulence. Death was used as an endpoint in these studies (with no indication of use of humane euthanasia). In animal toxicity and efficacy assays of the adhesion antagonistic peptides, we used death as the endpoint as early, reliable and unbiased biomarkers that can be used as indicators of disease severity are lacking. There is difficulty in reliably differentiating fish that will die from those which will recover, despite showing clinical signs precluding use of humane euthanasia. In addition, interpretation of clinical signs can itself be subjective in the absence of quantifiable indicators of disease severity. For these reasons, the ethical committee of Anhui Agricultural University has assessed the possibility of deaths in the animal toxicity and efficacy assays and also allowed probably unavoidable animal deaths.

[1] = test system: V. mimicus 04–14 isolate adhesion to EPC cells; experiment: Peptide adhesion inhibition test: V. mimicus adhesion to EPC cells; format: cell-based, Vibrio mimicus; conditions: 500 μg/mL peptide mixed with equal volume of V. mimicus 04–14 (2 × 10^7 CFU/mL), 1 h 28°C, then 1 h on EPC cells, crystal violet, 30 cells counted, mean ± SD, triplicate
Experimental: When EPC cells grown in 24-well plate containing coverslips formed a confluent monolayer, the medium was changed to RPMI-1640 medium without serum and antibiotics for 2 h. Subsequently, 500 μg/mL of each OmpU-binding peptide or unrelated control peptide solution were respectively mixed with an equal volume of V. mimicus isolate 04–14 suspension (2 × 10^7 CFU/mL) and incubated for 1 h at 28°C. The mixture was added to each well, and then the plates were incubated for 1 h at 28°C. After 3 times washes, EPC cells were fixed with cooled methanol for 10 min, stained with crystal violet and examined under a light microscope at a magnification of ×1,000. Thirty cells were randomly selected to count the number of adhering bacterial per slide. Each experiment was performed in triplicate, with each sample being repeated in 3 cell wells.

grass carps = experiment: Acute toxicity to grass carps; format: in vivo, Ctenopharyngodon idella; conditions: 100 mg/kg i.p., six fish per group; for survival in the 7-day study period: 7 days
Experimental: as §1
For acute toxicity detection, synthetic P1, P2 and unrelated control peptide was dissolved in sterile deionized water, respectively, and given to grass carps by intraperitoneal (i.p.) injection at a dose of 100 mg/kg, six fish per group. The number of fish surviving in each group was monitored for up to a period of 7 days after injection. At the end of the experiments, all surviving fish were euthanized in a solution of 200 mg/L of MS-222 followed by a blow to the head.

[2] = test system: rOmpU fusion protein adhesion to EPC cells; experiment: Fluorescence-based adhesion assay: rOmpU protein adhesion to EPC cells; format: cell-based, Vibrio mimicus; conditions: 500 μg/mL peptide mixed with equal volume of 500 μg/mL rOmpU, 1 h 28°C, then 1 h on fixed EPC cells; anti-OmpU/FITC immunofluorescence; triplicate
Experimental: Synthetic OmpU-binding peptides were measure for their ability to antagonize OmpU protein adhesion to EPC cells by fluorescence-based adhesion assay. Briefly, EPC cells (1 × 10^6 cells/mL) were seeded in 24-well cell plate containing coverslip (Corning, NY, USA) and cultured to 80% confluence. The cells were gently washed 3 times with PBS and fixed with 4% paraformaldehyde at room temperature for 15 min. After 3 washes with PBS, cells were permeabilized with 0.5% Triton X-100 (500 μL/well) for 15 min. The cells were then washed 3 times with PBS and blocked with 2% BSA for 30 min. Subsequently, 500 μg/mL of each OmpU-binding peptide or irrelevant control peptide (used as negative control) solution were respectively mixed with an equal volume of 500 μg/mL rOmpU fusion protein, and the mixture was incubated for 1 h at 28°C and added to each well. The plates were incubated for 1 h at 28°C. After 3 washes, purified rabbit anti-OmpU antibody (prepared in our previous studies) at a dilution of 1:200 in PBS was added to each well and incubated for 1 h at 28°C, followed by 3 washes in PBS. A 1:100 dilution of FITC (fluorescein isothiocyanate)-labeled goat anti-rabbit IgG (Jackson ImmunoResearch Laboratories, Inc., USA) was added to each well and incubated in the dark for 1 h. After 3 washes in PBS, 4,6-Diamidino-2-phenylindole dihydrochloride (DAPI; Ziyi Reagent Co., Shanghai, China) was used to stain the nucleus, and the coverslips were observed under a fluorescence microscope. Each experiment was performed in triplicate, each sample being tested in three wells.

[3] = 10 mg/kg/d i.p. for 3 days before challenge
[4] = 10 mg/kg/d i.p. for 3 days before i.p. challenge with 6 × 10^6 cells
[5] = 20 mg/kg/d i.p. for 3 days before challenge
[6] = 30 mg/kg/d i.p. for 3 days before challenge

Sequence | Mortality rate (V. mimicus 04–14 isolate; [3]) | Survival rate (V. mimicus 04–14 isolate; [3]) | No. of dead fish post challenge, 2d (V. mimicus 04–14 isolate; [3]) | No. of dead fish post challenge, 3d (V. mimicus 04–14 isolate; [3]) | No. of dead fish post challenge, 4d (V. mimicus 04–14 isolate; [3]) | No. of dead fish post challenge, 5d (V. mimicus 04–14 isolate; [3]) | No. of dead fish post challenge, 6d (V. mimicus 04–14 isolate; [3]) | No. of dead fish post challenge, 7d (V. mimicus 04–14 isolate; [3]) | No. of dead fish (V. mimicus 04–14 isolate; [3]) | No. of dead fish post challenge, 1d (V. mimicus 04–14 isolate; [4]) | Mortality rate (V. mimicus 04–14 isolate; [5]) | Survival rate (V. mimicus 04–14 isolate; [5]) | No. of dead fish post challenge, 1d (V. mimicus 04–14 isolate; [5]) | No. of dead fish post challenge, 2d (V. mimicus 04–14 isolate; [5]) | No. of dead fish post challenge, 3d (V. mimicus 04–14 isolate; [5]) | No. of dead fish post challenge, 4d (V. mimicus 04–14 isolate; [5]) | No. of dead fish post challenge, 5d (V. mimicus 04–14 isolate; [5]) | No. of dead fish post challenge, 6d (V. mimicus 04–14 isolate; [5]) | No. of dead fish post challenge, 7d (V. mimicus 04–14 isolate; [5]) | No. of dead fish (V. mimicus 04–14 isolate; [5]) | other results
TWTCSDVICTAR [P1, adhesion antagonistic peptide] | 90% | 10% | 5 | 2 | 2 | 0 | 0 | 0 | 9 | 0 | 80% | 20% | 0 | 4 | 2 | 2 | 0 | 0 | 0 | 8 | Mortality rate (V. mimicus 04–14 isolate; [6]): 60%; Survival rate (V. mimicus 04–14 isolate; [6]): 40%; No. of dead fish post challenge, 1d (V. mimicus 04–14 isolate; [6]): 0; No. of dead fish post challenge, 2d (V. mimicus 04–14 isolate; [6]): 2; No. of dead fish post challenge, 3d (V. mimicus 04–14 isolate; [6]): 3; No. of dead fish post challenge, 4d (V. mimicus 04–14 isolate; [6]): 1; No. of dead fish post challenge, 5d (V. mimicus 04–14 isolate; [6]): 0; No. of dead fish post challenge, 6d (V. mimicus 04–14 isolate; [6]): 0; No. of dead fish post challenge, 7d (V. mimicus 04–14 isolate; [6]): 0; No. of dead fish (V. mimicus 04–14 isolate; [6]): 6; average number of adhesion around each cell [1]: 5.1 ± 0.7 and 5.1 ± 0.6; immediate adverse events (enervation or feed intake reduction) (grass carps): no immediate adverse events; survival in the 7-day study period (grass carps): all the treated fish survived; green fluorescence on the surface of EPC cells (surface-retained rOmpU) [2]: little or no green fluorescence
SCTSPHCFMWLP [P2, adhesion antagonistic peptide] | 80% | 20% | 4 | 3 | 1 | 0 | 0 | 0 | 8 | 0 | 60% | 40% | 0 | 2 | 3 | 1 | 0 | 0 | 0 | 6 | Mortality rate (V. mimicus 04–14 isolate; [6]): 40%; Survival rate (V. mimicus 04–14 isolate; [6]): 60%; No. of dead fish post challenge, 1d (V. mimicus 04–14 isolate; [6]): 0; No. of dead fish post challenge, 2d (V. mimicus 04–14 isolate; [6]): 2; No. of dead fish post challenge, 3d (V. mimicus 04–14 isolate; [6]): 2; No. of dead fish post challenge, 4d (V. mimicus 04–14 isolate; [6]): 0; No. of dead fish post challenge, 5d (V. mimicus 04–14 isolate; [6]): 0; No. of dead fish post challenge, 6d (V. mimicus 04–14 isolate; [6]): 0; No. of dead fish post challenge, 7d (V. mimicus 04–14 isolate; [6]): 0; No. of dead fish (V. mimicus 04–14 isolate; [6]): 4; average number of adhesion around each cell [1]: 3.4 ± 0.8; immediate adverse events (enervation or feed intake reduction) (grass carps): no immediate adverse events; survival in the 7-day study period (grass carps): all the treated fish survived; green fluorescence on the surface of EPC cells (surface-retained rOmpU) [2]: little or no green fluorescence
